Experimental data as given in US20200308162A1, “DRUGS AND COMPOSITIONS FOR OCULAR DELIVERY” (Graybug Vision, Inc., priority 2017, published 2020).
Entries after “also recorded” stand apart in the source; their conditions may differ. Counter-ions that a name gives are not always drawn.

What was measured:
[1] = Mean size of ethacrynic acid prodrug encapsulated microparticles; assay type: physicochemical
[2] = In vitro stability of ethacrynic acid prodrugs at 37° C.; assay type: physicochemical; conditions: for generation of parent ethacrynic acid as ester linkages are hydrolyzed: 37° C. over 6 days
Description: As evidenced, both prodrugs of ethacrynic acid degrade steadily over the 6 day period. As the ester linkages are hydrolyzed, the parent compound is generated in a linear rate. The rate of degradation to the parent compound is faster for the shorter […] in comparison to the degradation kinetics for ethacrynic acid-PLA(n=4)-ethyl ester (1).
Approximately 94% of the ECA-PLA(n=4) prodrug (1) has been converted to free ECA by day 6, in comparison to only 56% for ECA-PLA(n=6) (25). Also, by day 6, all the initial prodrug has been degraded into intermediates and free drug respectively.

[3] = Drug release kinetics of Timolol and ethacrynic acid prodrugs from polymer microparticles; assay type: physicochemical
Method: The effect of polymer composition including monomer ratio and molecular weight, polymer end-groups (ester or acid), inherent viscosity and polymer blend ratios on particle degradation and drug release kinetics of Timolol-O-ethyl fumurate (17) was evaluated and is illustrated in FIG. 5. The rate of particle degradation was slowed and drug release was prolonged when the mole % of DL-lactide over glycolide was increased. By incorporating polymers with different monomer ratios (i.e., PLA, PLGA8515, PLGA525, PLGA5050 wherein 8515 refers to 85% DL-lactide and 15% glycolide) into the particles, it is possible to fine-tune the degradation rate of the particles to achieve a linear rate of drug release from the particles to minimize burst or lag and to extend the duration of release. […] The 78/22(PLA 5A/PLGA8515 4.5A) and 65/20/15(PLA 4A/PLGA6515 4.5A/PLGA5050 4A) polymer blends generated ideal particles for a 3-6 month linear release formulation. […] The rate of release was independent of the salt form. […] Thus, release rate is not solely dictated by the physicochemical properties of the linker, but rather must be attributed to a combination of parameters that may include linker type and site of linker conjugation.
FIG. 6 illustrates the release kinetics of ethacrynic acid-PLA(n=4)-ethyl ester (1) from PLGA microparticles. The drug was released over a period of approximately 66 days.
FIG. 8 and FIG. 9 illustrate the release kinetics of ethacrynic acid-PLA(n=4)-ethyl ester (1) and ethacrynic acid-PLA(n=6)-ethyl ester (25), respectively, from PLGA microparticles. The drug was released from a number of formulations over a period of greater than 90 days. […] Particles generated with 1% PVA in PBS was compared against particles generated in 1% PVA in water (FIG. 10).
Based upon these initial formulation screens, the formulation comprising of 1% mPEG-PLGA and 99% PLA100 4.5A:PLGA8515 5A (77:22) was selected as the lead formulation for ECA-PLA(n=4) (1) and ECA-PLA(n=6) (25) prodrugs. The particles were prepared in 1% PVA in water. The release profiles for the lead ECA-PLA(n=4) (1) and ECA-PLA(=6) (25) particle formulations are illustrated in FIG. 11.

[4] = Percent drug loading of ethacrynic acid prodrug microparticles (RP-HPLC); assay type: physicochemical
Method: To determine the percent drug loading (% DL), 10 mg of particles was weighed into a glass scintillation vial and dissolved with 10 mL of MeCN:water (1:1, v/v). The solution was filtered through a 0.2 μm nylon syringe filter and the drug content was determined by RP-HPLC referenced against a standard calibration curve.

[5] = Drug solubility in water, DMSO and DCM (HPLC of filtered supernatant); conditions: for solubility: thermodynamic from solid; for Solubility Water: 50 mg/mL target concentration
Method: For each test, approximately 5-10 mg was transferred to a 10 mL glass vial. Aqueous or organic solvent was added to each vial to achieve an overall concentration of 50 mg/mL. After vortexing aggressively for 2-3 minutes and sonicating in a bath sonicator for 5 minutes, undissolved drug was spun down at 1200 rpm for 5 minutes to generate a pellet. The supernatant was collected and filtered through a 0.2 μm nylon syringe filter into HPLC vials for drug content analysis. Drug concentration was determined by comparing against a standard calibration curve.

[6] = In vitro drug release kinetics of Timolol prodrug microparticles in PBS and 1% Tween 20 (pH 7.4) at 37° C.; assay type: physicochemical; conditions: PBS and 1% Tween 20 (pH 7.4), 37° C.
Method: In vitro drug release kinetics were evaluated in a release medium composed of PBS and 1% Tween 20 (pH 7.4). Briefly, 10 mg of particles was suspended in 4 mL of the release medium The particle suspension was incubated on an orbital shaker at 150 rpm at 37° C. At various time points, 3 mL of release media was collected, and the suspension was replenished with 3 mL of fresh release media. Collected release samples were frozen and stored at −80° C. until analysis for drug content. The collected samples were filtered through a 0.2 μm syringe filter and analyzed by RP-HPLC. FIG. 17-FIG. 22 illustrate the total and parent Timolol release profile for the microparticles encapsulating bis-prodrugs of Timolol of Table 11.

[7] = PLA100 4.5A + 1% PEG-PLGA5050, polymer 200 mg/mL
[8] = PLA100 4.5A + PLGA7525 6E (69:30) + 1% PEG-PLGA5050, polymer 200 mg/mL
[9] = PLA100 4.5A + PLGA8515 5A (77:22) + 1% PEG-PLGA5050, polymer 200 mg/mL
[10] = PLA100 4.5A + PLGA8515 5A + PLGA5050 4A (64:20:15) + 1% PEG-PLGA5050, polymer 200 mg/mL
[11] = PLA100 4.5A + PLGA8515 5A + PLGA5050 4A (64:30:5) + 1% PEG-PLGA5050, polymer 200 mg/mL
[12] = PLGA7525 4A + 1% PEG-PLGA5050, polymer 200 mg/mL
[13] = PLGA7525 6A + 1% PEG-PLGA5050, polymer 200 mg/mL
[14] = PLGA8515 5A + 1% PEG-PLGA5050, polymer 200 mg/mL
[15] = PLGA8515 5A + PLGA7525 4A (69:30) + 1% PEG-PLGA5050, polymer 200 mg/mL
[16] = DMSO, organic solvent or mixture
[17] = DCM, organic solvent or mixture

C=C(CC)C(=O)c1ccc(OCC(=O)O[C@@H](C)C(=O)O[C@@H](C)C(=O)O[C@@H](C)C(=O)O[C@@H](C)C(=O)OCC)c(Cl)c1Cl [Compound 1, (S)-2-{2-[2,3-Dichloro-4-(2-methylene-butyryl)-phenoxy]-acetoxy}-propionic acid (S)-1-[(S)-1-((S)-1-ethoxycarbonyl-ethoxycarbonyl)-ethoxycarbonyl]-ethyl ester]
Mean size [1, 7]: 35.06 um
Mean size [1, 8]: 27.40 um
Mean size [1, 9]: 26.60 um
Mean size [1, 10]: 28.34 um
Mean size [1, 11]: 29.86 um
Mean size [1, 12]: 29.85 um
Mean size [1, 13]: 25.21 um
Mean size [1, 14]: 28.90 um
Mean size [1, 15]: 27.74 um
generation of parent ethacrynic acid as ester linkages are hydrolyzed [2]: generated at a linear rate
rate of degradation of the prodrug ([2]; 37° C., 6 days): slightly faster
prodrug converted to free ECA by day 6 ([2]; 37° C., day 6): Approximately 94%
in vitro release profile of lead microparticle formulation ([3]; 1% mPEG-PLGA and 99% PLA100 4.5A:PLGA8515 5A (77:22), prepared in 1% PVA in water, FIG. 11): typical biphasic release profile
period over which the drug was released ([3]; microparticles of PLA/PLGA blends, PLGA blends, FIG. 6): approximately 66 days
% Drug loading [4, 7]: 13.42%
% Drug loading [4, 8]: 14.17%
% Drug loading [4, 9]: 12.56%
% Drug loading [4, 10]: 13.75%
% Drug loading [4, 11]: 12.68%
% Drug loading [4, 12]: 13.09%
% Drug loading [4, 13]: 13.15%
% Drug loading [4, 14]: 13.59%
% Drug loading [4, 15]: 13.49%
solubility [5, 16]: > 40 mg/mL
solubility ([5]; water): < 1 mg/mL

C=C(CC)C(=O)c1ccc(OCC(=O)O[C@@H](C)C(=O)O[C@@H](C)C(=O)OCC)c(Cl)c1Cl [Compound 2, 2-{2-[2,3-Dichloro-4-(2-methylene-butyryl)-phenoxy]-acetoxy}-propionic acid 1-ethoxycarbonyl-ethyl ester]
generation of parent ethacrynic acid as ester linkages are hydrolyzed [2]: generated at a linear rate
rate of degradation to the parent compound / conversion to the free drug ([2]; 37° C., 6 days, comparison between prodrugs): degraded faster; also recorded: significantly faster
solubility [5, 16]: > 50 mg/mL
solubility ([5]; water): < 1 mg/mL

CC(C)(C)NC[C@@H](COc1nsnc1N1CCOCC1)OC(=O)CCC(=O)O [Compound 4, Succinic acid mono-[(S)-1-(tert-butylamino-methyl)-2-(4-morpholin-4-yl-[1,2,5]thiadiazol-3-yloxy)-ethyl] ester]
solubility [5, 16]: > 50 mg/mL
solubility ([5]; water): > 50 mg/mL

CCOC(=O)CCC(=O)O[C@@H](CNC(C)(C)C)COc1nsnc1N1CCOCC1.O=C(O)/C=C\C(=O)O [Compound 5, Timolol-O-Ethylsuccinate Maleate]
solubility [5, 16]: > 50 mg/mL
solubility ([5]; water): 12.5 mg/mL

CCOC(=O)CCC(=O)O[C@@H](CNC(C)(C)C)COc1nsnc1N1CCOCC1.Cl [Compound 6, Timolol-O-Ethylsuccinate HCL]
solubility [5, 16]: > 50 mg/mL
solubility ([5]; water): 6.25 mg/mL

CC(C)(C)NC[C@@H](COc1nsnc1N1CCOCC1)OC(=O)/C=C\C(=O)O [Compound 7, Timolol-O-Maleate]
solubility [5, 16]: > 50 mg/mL
solubility ([5]; water): > 50 mg/mL

CCOC(=O)/C=C\C(=O)O[C@@H](CNC(C)(C)C)COc1nsnc1N1CCOCC1.O=C(O)/C=C\C(=O)O [Compound 8, Timolol-O-Ethylmaleate-Maleic Acid]
solubility [5, 16]: > 50 mg/mL
solubility ([5]; water): < 1 mg/mL

CCCCCCCCCCCCOC(=O)/C=C/C(=O)O[C@@H](CNC(C)(C)C)COc1nsnc1N1CCOCC1 [Compound 12, Timolol-O-Laurylfumurate-Maleate]
solubility [5, 16]: > 100 mg/mL
solubility ([5]; water): < 1 mg/mL

CCN[C@H]1C[C@H](C)S(=O)(=O)c2sc(S(=O)(=O)NC(=O)/C=C/C(=O)OCC)cc21 [Compound 14, Dorzolamide-Ethylfumurate]
solubility [5, 17]: > 100 mg/mL
solubility [5, 16]: > 100 mg/mL
solubility ([5]; water): < 1 mg/mL

CCOC(=O)/C=C/C(=O)O[C@@H](CNC(C)(C)C)COc1nsnc1N1CCOCC1 [Compound 17, Timolol-O-Ethylfumurate]
linear release profile ([3]; microparticles, 78/22(PLA 5A/PLGA8515 4.5A) and 65/20/15(PLA 4A/PLGA6515 4.5A/PLGA5050 4A) polymer blends, FIG. 5): 3-6 month
solubility [5, 16]: > 50 mg/mL
solubility ([5]; water): < 1 mg/mL
Solubility Water ([5]; water): <1.0 mg/mL

CCOC(=O)/C=C\C(=O)OC(CNC(C)(C)C)COc1nsnc1N1CCOCC1 (centres unmarked) [Compound 18, Timolol-O-Ethyl Maleate]
solubility [5, 16]: > 100 mg/mL
solubility ([5]; water): > 25 mg/mL

C=C(CC)C(=O)c1ccc(OCC(=O)O[C@@H](C)C(=O)O[C@@H](C)C(=O)O[C@@H](C)C(=O)O[C@@H](C)C(=O)O[C@@H](C)C(=O)O[C@@H](C)C(=O)O[C@@H](C)C(=O)O[C@@H](C)C(=O)OCC)c(Cl)c1Cl [Compound 26]
solubility [5, 16]: > 50 mg/mL
solubility ([5]; water): < 0.1 mg/mL

CC(=O)OC(C)C(=O)OC(C)C(=O)OC(C)C(=O)OC(C)C(=O)N(C[C@@H](COc1nsnc1N1CCOCC1)OC(=O)C(C)OC(=O)C(C)OC(C)=O)C(C)(C)C (some centres unmarked) [Compound 55, Timolol-Bis-N-Acetyl-PLA (n = 4)-O-Acetyl PLA (n = 2)]
parent Timolol released relative to total release of prodrug and intermediates [6]: significantly less

CC(=O)OC(C)C(=O)OC(C)C(=O)OC(C)C(=O)OC(C)C(=O)O[C@H](COc1nsnc1N1CCOCC1)CN(C(=O)C(C)OC(=O)C(C)OC(C)=O)C(C)(C)C (some centres unmarked) [Compound 56, Timolol-Bis-N-Acetyl-PLA (n = 2)-O-Acetyl-PLA (n = 4)]
parent Timolol released relative to total release of prodrug and intermediates [6]: significantly less

CCN[C@H]1C[C@H](C)S(=O)(=O)c2sc(S(N)(=O)=O)cc21 [Dorzolamide, reference compound]
solubility [5, 17]: < 1 mg/mL
solubility [5, 16]: < 1 mg/mL
solubility ([5]; water): > 50 mg/mL

Dorzolamide-Laurylmaleate [Compound 16]
Solubility DMSO ([5]; DMSO): >50 mg/mL
Solubility Water ([5]; water): <1.0 mg/mL

Dorzolamide-Stearylfumurate [Compound 15]
Solubility DMSO ([5]; DMSO): >100 mg/mL
Solubility Water ([5]; water): >50 mg/mL

Timolol-Bis-Acetyl PLA (n = 4) [Compound 54]
parent Timolol released relative to total release of prodrug and intermediates [6]: significantly less
